Experimental data reported in ChEMBL document CHEMBL1123019, “N-phenylpiperazine derivatives with hypocholesterolemic activity” (J Med Chem, 1985).

Tests used:
[1] = Dose required for 50% lethality after intraperitoneal administration in mice; assay type: ADME, organism-based; conditions: mouse, in vivo, ip
[2] = test system: Mus musculus; test: Dose required for 50% reduction of spontaneous locomotory activity in mice when administered orally; assay type: functional; conditions: po
[3] = test system: Rattus norvegicus; test: Dose required for 50% reduction of plasma cholesterol in rat when administered orally (200 mg/kg maximal administered dose); assay type: functional; conditions: po
[4] = test system: Rattus norvegicus; test: Dose required for 50% reduction of plasma cholesterol in rat when administered orally.; assay type: functional; conditions: po
[5] = test system: Rattus norvegicus; test: Percent reduction of total cholesterol level in plasma was evaluated at dose 30 mg/kg in rat; assay type: functional
[6] = test system: Rattus norvegicus; test: Percent reduction of phospholipid level in plasma was evaluated 30 mg/kg in rat; assay type: functional
[7] = test system: Mus musculus; test: Dose required for 50% reduction of spontaneous locomotory activity in mice when administered orally (120 mg/kg is maximal dose administered); assay type: functional; conditions: po
[8] = test system: Rattus norvegicus; test: Percent reduction of total cholesterol level in plasma was evaluated at dose 10 mg/kg in rat; assay type: functional
[9] = test system: Rattus norvegicus; test: Percent reduction of total cholesterol level in plasma was evaluated at dose 100 mg/kg in rat; assay type: functional
[10] = test system: Rattus norvegicus; test: Percent reduction of phospholipid level in plasma was evaluated 10 mg/kg in rat; assay type: functional
[11] = test system: Rattus norvegicus; test: Percent reduction of total cholesterol level in plasma was evaluated at dose 3 mg/kg in rat; assay type: functional
[12] = test system: Rattus norvegicus; test: Percent reduction of triglyceride level in plasma was evaluated 10 mg/kg in rat; assay type: functional
[13] = test system: Rattus norvegicus; test: Percent increase in liver weight in plasma was evaluated 100 mg/kg in rat; assay type: functional
[14] = test system: Rattus norvegicus; test: Percent reduction of triglyceride level in plasma was evaluated 100 mg/kg in rat; assay type: functional
[15] = test system: Rattus norvegicus; test: Percent reduction of triglyceride level in plasma was evaluated 30 mg/kg in rat; assay type: functional
[16] = test system: Rattus norvegicus; test: Percent increase in liver weight in plasma was evaluated 30 mg/kg in rat; assay type: functional
[17] = test system: Rattus norvegicus; test: Percent reduction of phospholipid level in plasma was evaluated 100 mg/kg in rat; assay type: functional
[18] = test system: Rattus norvegicus; test: Percent increase in liver weight in plasma was evaluated 10 mg/kg in rat; assay type: functional
[19] = test system: Rattus norvegicus; test: Percent reduction of phospholipid level in plasma was evaluated 12.5 mg/kg in rat; assay type: functional
[20] = test system: Rattus norvegicus; test: Percent reduction of total cholesterol level in plasma was evaluated at dose 300 mg/kg in rat; assay type: functional
[21] = test system: Rattus norvegicus; test: Percent reduction of triglyceride level in plasma was evaluated 12.5 mg/kg in rat; assay type: functional
[22] = test system: Rattus norvegicus; test: Percent reduction of triglyceride level in plasma was evaluated 300 mg/kg; in rat; assay type: functional
[23] = test system: Rattus norvegicus; test: Percent increase in liver weight in plasma was evaluated 300 mg/kg in rat; assay type: functional
[24] = test system: Rattus norvegicus; test: Percent reduction of total cholesterol level in plasma was evaluated at dose 12.5 mg/kg in rat; assay type: functional
[25] = test system: Rattus norvegicus; test: Percent reduction of triglyceride level in plasma was evaluated 25 mg/kg in rat; assay type: functional
[26] = test system: Rattus norvegicus; test: Percent reduction of phospholipid level in plasma was evaluated 25 mg/kg in rat; assay type: functional
[27] = test system: Rattus norvegicus; test: Percent reduction of triglyceride level in plasma was evaluated 50 mg/kg in rat; assay type: functional
[28] = test system: Rattus norvegicus; test: Percent increase in liver weight in plasma was evaluated 50 mg/kg in rat; assay type: functional
[29] = test system: Rattus norvegicus; test: Percent increase in liver weight in plasma was evaluated 12.5 mg/kg in rat; assay type: functional
[30] = test system: Rattus norvegicus; test: Percent reduction of total cholesterol level in plasma was evaluated at dose 25 mg/kg in rat; assay type: functional
[31] = test system: Rattus norvegicus; test: Percent reduction of total cholesterol level in plasma was evaluated at dose 50 mg/kg in rat; assay type: functional
[32] = test system: Rattus norvegicus; test: Percent increase in liver weight in plasma was evaluated 25 mg/kg in rat; assay type: functional
[33] = test system: Mus musculus; test: Dose required for 50% reduction of spontaneous locomotory activity in mice when administered orally (100 mg/kg is maximal dose administered); assay type: functional; conditions: po
[34] = test system: Rattus norvegicus; test: Dose required for 50% reduction of plasma cholesterol in rat when administered orally.(100 mg/kg is maximal dose administered); assay type: functional; conditions: po
[35] = test system: Mus musculus; test: Dose required for 50% reduction of spontaneous locomotory activity in mice when administered orally (200 mg/kg maximal administered dose); assay type: functional; conditions: po
[36] = test system: Rattus norvegicus; test: Dose required for 50% reduction of plasma cholesterol in rat when administered orally (100 mg/kg maximal administered dose); assay type: functional; conditions: po
[37] = test system: Rattus norvegicus; test: Dose required for 50% reduction of plasma cholesterol in rat when administered orally; assay type: functional; conditions: po
[38] = test system: Mus musculus; test: Dose required for 50% reduction of spontaneous locomotory activity in mice when administered orally (200 mg/kg is maximal dose administered); assay type: functional; conditions: po
[39] = test system: Rattus norvegicus; test: Dose required for 50% reduction of plasma cholesterol in rat when administered orally. (100 mg/kg is maximal dose administered); assay type: functional; conditions: po
[40] = test system: Rattus norvegicus; test: Dose required for 50% reduction of plasma cholesterol in rat when administered orally (45 mg/kg maximal administered dose); assay type: functional; conditions: po
[41] = test system: Rattus norvegicus; test: Percent reduction of total cholesterol level in plasma was evaluated 100 mg/kg in rat; assay type: functional
[42] = test system: Rattus norvegicus; test: Percent reduction of triglyceride level in plasma was evaluated 300 mg/kg in rat; assay type: functional
[43] = test system: Rattus norvegicus; test: Percent reduction of phospholipid level in plasma was evaluated 300 mg/kg in rat; assay type: functional
[44] = test system: Rattus norvegicus; test: Percent reduction of total cholesterol level in plasma was evaluated 300 mg/kg in rat; assay type: functional

CC(C)(C)NC(=O)OC(CCN1CCN(c2ccccc2)CC1)C(=O)c1ccc(F)cc1 (stereo unspecified)
LD50 [1]: > 1000 mg/kg
ED50 [2]: 200 mg/kg
ED50 [3]: 18 mg/kg

CC(=O)OC(CCN1CCN(c2ccccc2)CC1)C(=O)c1ccc(F)cc1.O=C(O)/C=C/C(=O)O (stereo unspecified)
ED50 [4]: 100 mg/kg
LD50 [1]: 575 mg/kg
ED50 [2]: 56 mg/kg

Cl.O=c1oc(CCN2CCN(c3cccc(Cl)c3)CC2)c(-c2ccc(F)cc2)o1
LD50 [1]: 500 mg/kg
ED50 [2]: 46 mg/kg

Cl.O=c1oc(CCN2CCN(c3ccccc3)CC2)c(-c2ccc(Cl)cc2)o1
Reduction [5]: 72%
Reduction [6]: 58%
ED50 [7]: 31 mg/kg
Reduction [8]: 48%
ED50 [4]: 11.3 mg/kg
Reduction [9]: 100%
Reduction [10]: 14%
Reduction [11]: 16%
Reduction [12]: 15%
Increase [13]: 28%
Reduction [14]: 63%
LD50 [1]: 865 mg/kg
Reduction [15]: 22%
Increase [16]: 13%
Reduction [17]: 83%
Increase [18]: 3%

Cc1ccc(-c2oc(=O)oc2CCN2CCN(c3ccccc3)CC2)cc1.Cl
ED50 [4]: 80 mg/kg
LD50 [1]: > 1000 mg/kg

Cl.O=c1oc(CCN2CCN(c3ccccc3)CC2)c(-c2ccc(F)cc2)o1
Reduction [19]: 19%
Reduction [20]: 97%
ED50 [4]: 18.6 mg/kg
Reduction [21]: 12%
Reduction [22]: 82%
Increase [23]: 43%
Reduction [9]: 85%
Reduction [24]: 39%
Reduction [25]: 20%
Reduction [26]: 52%
Increase [13]: 33%
Reduction [27]: 36%
Reduction [14]: 27%
LD50 [1]: 936 mg/kg
Increase [28]: 12%
ED50 [2]: 100 mg/kg
Increase [29]: 9%
Reduction [30]: 57%
Reduction [31]: 76%
Reduction [17]: 75%
Increase [32]: 12%

Cl.O=c1oc(CCN2CCN(c3cc(Cl)cc(Cl)c3)CC2)c(-c2ccc(F)cc2)o1
ED50 [33]: 16 mg/kg
ED50 [34]: 5 mg/kg
LD50 [1]: > 1000 mg/kg

Cl.O=c1oc(CCN2CCN(c3ccccc3)CC2)c(-c2ccccc2)o1
ED50 [4]: 50 mg/kg
LD50 [1]: 500 mg/kg
ED50 [2]: 50 mg/kg

COc1cc(C(=O)OC(CCN2CCN(c3ccccc3)CC2)C(=O)c2ccc(F)cc2)cc(OC)c1OC.Cl (stereo unspecified)
LD50 [1]: > 1000 mg/kg
ED50 [35]: 13 mg/kg
ED50 [36]: 21 mg/kg

Cl.O=C(c1ccc(F)cc1)C(O)CCN1CCN(c2ccccc2)CC1 (stereo unspecified)
ED50 [4]: 50 mg/kg
LD50 [1]: > 1000 mg/kg
ED50 [2]: 35 mg/kg

Cl.O=c1oc(CCN2CCN(c3cccc(C(F)(F)F)c3)CC2)c(-c2ccc(F)cc2)o1
LD50 [1]: 1000 mg/kg
ED50 [2]: 200 mg/kg

CSc1ccc(-c2oc(=O)oc2CCN2CCN(c3ccccc3)CC2)cc1.Cl
ED50 [34]: 15 mg/kg
LD50 [1]: > 1000 mg/kg
ED50 [2]: 200 mg/kg

Cl.O=c1oc(CCCN2CCN(c3ccccc3)CC2)c(-c2ccc(F)cc2)o1
ED50 [37]: 50 mg/kg

Cl.O=c1oc(CCN2CCN(c3ccccc3)CC2)c(-c2ccc(-c3ccccc3)cc2)o1
LD50 [1]: > 1000 mg/kg
ED50 [38]: 29 mg/kg

Cl.O=c1oc(CCN2CCN(c3ccc(Cl)c(Cl)c3)CC2)c(-c2ccc(F)cc2)o1
ED50 [39]: 20 mg/kg
ED50 [2]: 120 mg/kg

Cl.O=c1oc(CCN2CCN(c3ccc(Cl)cc3)CC2)c(-c2ccc(Cl)cc2)o1
ED50 [34]: 8 mg/kg
LD50 [1]: > 1000 mg/kg

COc1ccc(-c2oc(=O)oc2CCN2CCN(c3ccccc3)CC2)cc1.Cl
ED50 [34]: 25 mg/kg
LD50 [1]: > 1000 mg/kg
ED50 [2]: 75 mg/kg

COc1ccccc1N1CCN(CCc2oc(=O)oc2-c2ccc(F)cc2)CC1.Cl
LD50 [1]: 350 mg/kg
ED50 [39]: 25 mg/kg
ED50 [2]: 47 mg/kg

CN(C)C(=O)OC(CCN1CCN(c2ccccc2)CC1)C(=O)c1ccc(F)cc1.Cl (stereo unspecified)
LD50 [1]: 150 mg/kg
ED50 [2]: 30 mg/kg
ED50 [40]: 35 mg/kg

CCOC(=O)C(C)(C)Oc1ccc(Cl)cc1 [CLOFIBRATE]
Reduction [41]: 46%
Reduction [5]: 31%
Increase [23]: 51%
Reduction [42]: -39%
Reduction [13]: 21%
Reduction [14]: 7%
Reduction [43]: -11%
Reduction [44]: 43%
Reduction [15]: 20%
Increase [16]: 3%
Reduction [17]: 23%
